From a melting point compilation (Tetko et al.; mined from patent text by program, amines drawn as free bases though some values may be those of a salt) come the findings set out here.

Bounds are passed on as bounds.

By melting point is commonly meant the temperature of the solid-liquid transition.

The compound `CS(=O)c1ccc(S(=O)(=O)N2CCCC(c3ccccc3)=N2)cc1` (stereo unspecified) returned a melting point of 137 to 139 °C.

In the case of `CC(C)(C)c1ncc(OCc2ccccc2)c(Cl)n1`, the melting point was 51 °C.

Compound `CC(C)(C)OC(=O)N1CCN(CCSc2nc3cc(F)c(F)cc3[nH]2)CC1` returned a melting point of 192 to 193 °C.

`O=C(Nc1ccc(Oc2ccc(C(O)CCC(=O)N3CCOCC3)cc2)c(F)c1)c1ccc(Cl)c(Cl)c1` (stereo unspecified): the melting point was in the range of 108 to 111 °C.

Take `COc1cn(-c2ccncc2)nc(-c2ccnn2-c2ccccc2)c1=O`: the melting point is 195 to 197 °C.

The compound `CN1Cc2ccccc2C(=O)c2cc(CC(=O)O)cc([N+](=O)[O-])c21` displayed a melting point of 184 to 186 °C.

Regarding `COC(=O)c1ccccc1S(=O)(=O)NC(=O)Nc1nc(C)cc(OC(F)F)n1`, the melting point lay within 162 to 164 °C.

`CC(C)Cn1c(C(C)(C)O)nc2c(N)nc3ccccc3c21` registered a melting point of 214 to 217 °C.

Turning to `Cc1ccc(Nc2cccc3c2OC(COS(=O)(=O)c2ccc(C)cc2)C3)cc1` (stereo unspecified), the melting point lay in the range of 118 to 120 °C.

Take `Cc1ccc(-c2nc(C)c3c(=O)[nH]ncn23)cc1`: the melting point lay in the range of 251 to 253 °C.

As for `O=c1ccc(S(=O)(=O)c2oc3ccccc3c2O)n[nH]1`, the melting point is 186 to 189 °C.

In turn, `O=C(O)C1(CP(=O)(OCc2ccccc2)OCc2ccccc2)CCCC1` had a melting point of 89 to 92 °C.

Turning to `CCOC(=S)N[C@@H](C)C(=O)O`, the melting point fell in the range of 74 to 78 °C.

With `COc1cc(N2CCOCC2)ccc1C(=O)O`, the melting point lay in the range of 158 to 160 °C.

`Clc1cc(NC23CC4CC(CC(C4)C2)C3)nc(N2CCCC2)n1`: the melting point was 186 to 190 °C.

On to `CC(=O)NC[C@H]1CN(c2ccc(-n3cc(-c4ccncc4)cn3)c(F)c2)C(=O)O1`, for which the melting point lay within 204 to 205 °C.

`COc1ccnc(CSc2nc3c(C)c(OC(F)F)c(C)cc3[nH]2)c1C` came in with a melting point of 190 to 191 °C.

As for `COc1cc(Cc2cnc(N)nc2N)cc(-c2ccc(C=O)cc2)c1OC`, the melting point amounted to 99 °C.

`CCn1cc(C(=O)O)c(=O)c2cc3cc(F)c(N4CCNC(c5ccc(F)cc5)C4)cc3nc21` (racemic) came in with a melting point of 298 °C.

The compound `Cc1cc(C#N)cc(C)c1OCCCc1ccc(CO)o1` came in with a melting point of 37 to 38 °C.

In turn, `O=S1(=O)N=CN(C2CC2)c2ccc(F)c(F)c21` yielded a melting point of 205 to 206 °C.

The compound `CC(=O)c1ccc(OCCCC(=O)O)cc1F` gave a melting point of 110 to 111 °C.

The compound `Clc1ccc2c(c1)CCc1cccnc1C2=C1CCN(Cc2ccc(Cl)nc2)CC1` yielded a melting point of 76.2 to 81.7 °C.

In turn, `CCCc1c(OCCCSc2nc3ccc(C(=O)O)cc3[nH]2)ccc(C(C)=O)c1OC(C)=O` registered a melting point of 85 to 87 °C.

Compound `Nc1ncc(Br)nc1OCC1CCCC1` had a melting point of 78 to 79 °C.

On to `Clc1ncnc2c1ncn2C1CC=CC1`, for which the melting point lay in the range of 56 to 58 °C.

As to `O=CNc1cc(Cl)ccc1C=O`, the melting point lay within 131 to 136 °C.

Consider `C=C(c1cn(-c2c(Cl)cc(C(F)(F)F)cc2Cl)nc1C#N)C(F)(F)C(F)(F)F`, for which the melting point lay in the range of 107 to 108 °C.

In the case of `CN1OCC/C(=C\c2nc(C(C)(C)C)c(O)c(C(C)(C)C)n2)C1=O`, the melting point was in the range of 180 to 181 °C.

Turning to `CCn1cc(C(=O)O)c(=O)cc1-c1ccc(O)cc1`, the melting point fell in the range of 243 to 245 °C.

In turn, `CN1C(=O)[C@H](NC(=O)C(c2ccccc2)c2ccccc2)N=C(c2ccccc2)c2ccccc21` yielded a melting point of 200 to 201 °C.

The compound `C[Si](C)(C)C#Cc1cn(C2CC(O)C(COC(c3ccccc3)(c3ccccc3)c3ccccc3)O2)c(=O)[nH]c1=O` (stereo unspecified) displayed a melting point of 104 °C.

On to `O=C1CCCc2c1c(-c1ccccc1)nn2-c1ccccc1`, for which the melting point came to 162 °C.

On to `N#Cc1cnn(-c2nc(Cl)c(C(F)(F)F)cc2Cl)c1N`, for which the melting point was 168 to 171 °C.

`Fc1ccc(Nc2ncnc3cnc(N4CCC(CCC5CCNCC5)CC4)nc23)cc1Cl`: the melting point was 112 to 114 °C.

In turn, `Brc1c(OCc2nnn[nH]2)ccc2cc(-c3csc(-c4ccccc4)n3)ccc12` came in with a melting point of 227 to 231 °C.

`CC1Cc2cc(F)c(F)cc2C1=O` (stereo unspecified) displayed a melting point of 66 to 68 °C.

In turn, `CCOC(c1cccc2cccnc12)n1c(NC2CCN(C(CN)C(C)C)CC2)nc2ccccc21` (stereo unspecified) had a melting point of 202 °C.

`O=C(O)C[C@H](NC(=O)CNC(=O)c1csc(NC(=O)NCc2ccccn2)n1)C(=O)NCc1ccccn1`: the melting point worked out at 164 °C.

In turn, `O=c1ccc2cnc(Nc3ccccc3)nc2[nH]1` yielded a melting point of over 350 °C.

Turning to `CC(C)(C)OC(=O)Nc1ccc(-c2ccccc2F)cc1NC(=O)CC(=O)c1cccc([N+](=O)[O-])c1`, the melting point is 167 °C.

`NC(=O)C1Cc2cc(F)ccc2N1` (stereo unspecified) yielded a melting point of 197 to 199 °C.

Regarding `O=c1c(Cl)c(OCc2ccc(Cl)cc2)cnn1-c1ccc(Cl)cn1`, the melting point was in the range of 167 to 169 °C.

The compound `CC(=O)NC[C@H](O)CC(=O)NN` came in with a melting point of 178 °C.

As for `C[C@@H](n1ncn(-c2ccc(OCC(F)(F)C(F)F)cc2)c1=O)[C@](O)(C=O)c1ccc(F)cc1F`, the melting point fell in the range of 134 to 136 °C.

Take `CCS(=O)(=O)CCC(=O)NNC(=O)N1Cc2ccccc2Oc2ccc(C(F)(F)F)cc21`: the melting point was in the range of 139 to 145 °C.

The compound `FC(F)(F)Oc1cccc(-c2nc(-c3ccccn3)no2)c1` gave a melting point of 86 to 88 °C.

Compound `NC(=O)Cc1c(Cl)cnc2c(NC(=O)c3c(Cl)cccc3Cl)cccc12` returned a melting point of over 300 °C.

As for `Cn1nc2n(c1=O)-c1ccc(Cl)nc1C(c1ccccc1Cl)=NC2`, the melting point fell in the range of 200 to 202 °C.

In the case of `O=C(OCC1OC(n2cc(F)c(=O)[nH]c2=O)C(O)C1OC(=O)c1ccccc1)c1ccccc1` (stereo unspecified), the melting point was in the range of 93 to 97 °C.

The compound `Cc1cc2c(-c3ccccc3)c(CC(=O)NCc3ccccc3)n(C)c(=O)c2cc1C` had a melting point of 222 °C.

In turn, `CCCCCCc1cc2c(cc1C(=O)Oc1ccc(C(=O)O)cn1)C(C)(C)CC2` yielded a melting point of 104 to 105 °C.

`O=S(=O)(Nc1ccc(-c2nn(S(=O)(=O)c3ccccc3)c3c2Cc2ccccc2-3)cc1)c1ccccc1`: the melting point is 251 to 252 °C.

As to `COCc1ccc(-c2ccc3c(c2)C=C(C(=O)Nc2ccc(CN(C)C4CCOCC4)cc2)CCS3(=O)=O)cc1`, the melting point was in the range of 227 to 229 °C.

`COc1ccc(CC2NC(=O)NC2=O)cc1OCc1ccccc1` (racemic): the melting point is 155 to 157 °C.

`CCOC(=O)C(C)(C)c1cn2nc(CCCCN3CCN(C(c4ccccc4)c4ccccc4)CC3)ccc2n1` had a melting point of 105 to 106 °C.

`Cc1ccc(S(=O)(=O)N(C)SSN(C)S(=O)(=O)c2ccc(C)cc2)cc1` displayed a melting point of 90 to 94 °C.

The compound `Clc1cc(C(Cl)(Cl)Cl)c(Cl)cc1C(Cl)(Cl)Cl` gave a melting point of 202 to 203 °C.

`Cc1ccc(-n2cccc2-c2ccc(S(C)(=O)=O)cc2)cc1` displayed a melting point of 112 to 114 °C.

Turning to `COC(=O)CCCc1cc2nc(Cl)ccc2n1S(=O)(=O)c1ccc2snnc2c1`, the melting point was determined as 219 °C.

With `CCOC(=O)c1cn2c(cc(Cl)c3ccc(OC)cc32)n1`, the melting point fell in the range of 215 to 216 °C.

`CC(=O)OC1OC(C)C(OCc2ccccc2)C(OCc2ccccc2)C1OCc1ccccc1` (stereo unspecified) registered a melting point of 86 to 87.5 °C.

On to `CCCCc1ccc2nc(C(=O)OCC)cc(Cl)c2c1`, for which the melting point was in the range of 54.5 to 56 °C.

As for `O=C(CO[C@H]1CC[C@@H](CCNS(=O)(=O)c2ccc(Cl)cc2)CC1)Nc1nnn[nH]1`, the melting point fell in the range of 191 to 192 °C.

Compound `Cc1cccc(C)c1C(=O)Oc1cc([N+](=O)[O-])cc([N+](=O)[O-])c1OC(=O)c1c(C)cccc1C` came in with a melting point of 175 to 178 °C.

`CN1CCN(C(=O)OC2c3ccccc3C(=O)N2c2ccc3ccc(Br)nc3n2)CC1` (stereo unspecified) returned a melting point of 260 °C.

Turning to `CCCCc1ccc(-c2nc(F)c(-c3ccc(OC)cc3)o2)cc1`, the melting point amounted to 72 °C.

For the compound `O=C(O)c1cn(C2CC2)c2c(F)c(N3CC(C(=O)O)C3)c(F)cc2c1=O`, the melting point is 251 to 255 °C.

In the case of `COc1ccc(C(=O)Nc2ccccc2)cc1NC(=S)Nc1cccc(C(F)(F)F)c1`, the melting point fell in the range of 177 to 178 °C.

`COC(=O)CCC(=O)c1cc(OC)ccc1OCC(O)CNC(C)(C)C` (stereo unspecified) gave a melting point of 70 to 72 °C.

Compound `CC(SSc1ccccc1C(=O)Nc1ccc(S(N)(=O)=O)cc1)C(=O)O` (stereo unspecified) had a melting point of 268 to 270 °C.

Compound `O=C(c1ccccc1)c1ccc2nc(-c3ccc(Br)o3)[nH]c2c1` came in with a melting point of 167 to 172 °C.

`CCOc1cc(C(CC(C)=O)N2C(=O)c3cccc(NC(C)=O)c3C2=O)ccc1OC` (stereo unspecified) came in with a melting point of 128 to 129 °C.

For `COc1cc(OC)cc(C(=O)N2CCc3cc(O)ccc3C2)c1`, the melting point was in the range of 170 to 171 °C.

`Cc1cccc(NP(N)(N)=O)c1` returned a melting point of 159 to 162 °C.

Compound `O=C1c2ccccc2CN1C1CCN(CCCCC2(C(=O)NCC(F)(F)F)c3ccccc3-c3ccccc32)CC1` showed a melting point of 143 to 146 °C.

For `N#CC1c2ccccc2Cc2ccccc21`, the melting point lay within 106 to 108 °C.

For the compound `COC(=O)c1ccc(-c2nc(-c3cc(C(F)(F)F)cc(C(F)(F)F)c3)co2)cc1`, the melting point lay in the range of 180 to 181 °C.

With `CNC1([C@@H]2CCN(c3ccc4c(=O)c(C(=O)O)cn([C@@H]5C[C@@H]5F)c4c3OC)C2)CC1`, the melting point was 213 to 215 °C.

Compound `CCCCc1nn(-c2cccc(N)c2)c(=O)n1Cc1ccc(-c2ccccc2S(=O)(=O)NC(=O)c2ccccc2Cl)cc1` displayed a melting point of 137 to 139 °C.

Consider `CCCC(=O)Oc1c(-c2ccc(-c3ccccc3)cc2)nc2ccccc2c1C(=O)O`, for which the melting point was 195 to 196 °C.

Turning to `CC(C)c1nc(O)c([N+](=O)[O-])c(O)n1`, the melting point is 300 °C.

With `CC(=O)N=C(O)c1cc(C(O)=NCCOC(C)=O)c(C(=O)O)cc1C(=O)O`, the melting point fell in the range of 176 to 178 °C.

`O=C(CCl)Oc1ccccc1O` had a melting point of 32 to 35 °C.

In turn, `ClC(=NNc1ccccc1)c1cccc(Cl)c1` gave a melting point of 80 to 81.5 °C.

For the compound `O=c1[nH]nc2n1-c1ccccc1OC2`, the melting point is 198 °C.
